Measured values as given in PMC10883907, “Phage-display reveals interaction of lipocalin allergen Can f 1 with a peptide resembling the antigen binding region of a human γδT-cell receptor” (Biological Chemistry, 2020).

Target: Can f 1 (Canis lupus, UniProt O18873)
Experiment: fluorescence titration (excitation […] nm, emission […] nm)
Type: binding

Can f 1, sequence (O18873 19-174): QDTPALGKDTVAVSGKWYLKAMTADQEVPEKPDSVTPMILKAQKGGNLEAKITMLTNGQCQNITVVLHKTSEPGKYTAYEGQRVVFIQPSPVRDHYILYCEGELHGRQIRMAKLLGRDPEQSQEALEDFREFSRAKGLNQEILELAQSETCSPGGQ

Compound: O=S(=O)(O)c1cccc2cccc(Nc3ccccc3)c12 [ANS, 8-anilinonaphthalene-1-sulfonic acid]
- Kd: 2.1 µM
